The source of these data is publication PMC8956739, “A synthetic lipopeptide targeting top-priority multidrug-resistant Gram-negative pathogens” (Nature Communications, 2022).

The subject of one data set is HK-2 cells. Description: Transcriptomic analysis (RNA-Seq) of kidney cells. It is filed as cell-based, human. As to conditions: for logFC, differential gene expression for all genes / log2FC / Fold Change: HK-2 RNA-Seq; for log2FC: Fig. 5f; for Fold Change: Fig. 5e; for num.of.degs: number of differentially expressed genes per peptide, Fig. 6a. On the procedure:
Human Kidney-2 (HK-2) cells (CRL-2190™, American Type Culture Collection) were treated with 100 μM colistin, F287, F319, and F365 for 24 h. Previous transcriptomic data of HK-2 cells following 24 h treatment with polymyxin B[26] were also employed for comparative bioinformatic analysis. RNA extraction was conducted as described above. Raw reads were aligned to genome GRCh38.94 (Ensembl genome database, http://ftp.ensembl.org/pub/release-94/fasta/homo_sapiens/dna/) using […] and summarized by featureCounts. Differentially expressed genes were determined using limma 3.46.0, with a combination of fold change ≥ 1.5 and FDR (by Benjamini–Hochberg algorithm) adjusted P-value ≤ 0.05 (n = 3). Key regulatory genes of HK-2 were analyzed in the context of signaling network in the Signor 2.0 database. Enrichment analysis of gene differential expression in HK-2 cells was conducted using enrichR 2.1. UpSetR 1.4.0, ComplexHeatmap 2.6.2, circlize 0.4.13 and iGraph 1.2.11 were used for data visualization. Raw data were deposited in the Short Reads Archive database under accession numbers SRR15239061-SRR15239078.

The nature of the next data set: in vitro. It is filed as cell-based, human. The settings on record: human, wild-type HK-2 cells (kidney proximal tubular), Cell viability, WT. On the procedure:
(§1) Fig. 6 Transcriptomic changes in human kidney proximal tubular HK-2 cells following treatments with polymyxin B (PMB), colistin (COL), F287, F319, and F365. a Numbers of differentially expressed genes. Distinctive intersections are color-coded. b Cell viability difference (two-tailed Student’s t-test, n = 4 biologically independent cells, Benjamini–Hochberg adjusted P-values) between wild-type HK-2 and KCNJ16 knockout (KO) cells following 24 h treatment with lipopeptides. n.s., not significant; ^*adjusted P < 0.05, ^**adjusted P < 0.01, ^***adjusted P < 0.001. Data are shown as mean ± s.d. and individual data points. c Extracted transcriptional regulatory network from Signor database with 1-step neighbor constraints (enlarged for detail). Source data are provided as a Source Data file.

Another data set concerns A. baumannii FADDI-AB034. The class given is cell-based, Acinetobacter baumannii. In a few lines: (§2)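 Cation-adjusted Mueller–Hinton broth was used with the broth microdilution method to set MICs against clinical isolates. A separate run on P. aeruginosa ATCC 27853 added 10% Survanta® (v/v, 2.5 mg/mL phospholipids) to gauge lung-surfactant binding of polymyxins.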
Data set [1] deals with MDR clinical isolates of A. baumannii (n = 210, 200 carbapenem-resistant). It is filed as cell-based, Acinetobacter baumannii. The method, boiled down: (§3)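 Broth microdilution, CaMHB; MIC read as the antibacterial endpoint against ATCC reference strains and clinical isolates.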
A further data set has as its system A. baumannii ATCC 19606. It is filed as cell-based, Acinetobacter baumannii. In a few lines: as §3
For a further data set, the system named is A. baumannii AB5075. The class given is cell-based, Acinetobacter baumannii. The method, boiled down:
as §2

The next data set relates to A. baumannii FADDI-AB030. It is filed as cell-based, Acinetobacter baumannii. The method, boiled down: as §2
Another data set relates to wild-type HK-2 cells. The experiment in a line: in vitro. It is filed as cell-based, human. As to conditions: human, wild-type HK-2 cells (kidney proximal tubular), 24 h. On the procedure:
as §1

[2] abbreviates: locus chr1 629640-630683 (ENSG00000225630 by coordinates).
Where [3] appears, read: MDR clinical isolates of (n = 210, 200 carbapenem-resistant).
Where [4] appears, read: locus chr1 632757-633438 (ENSG00000229344 by coordinates).

Converted amounts (≈) assume the structure as drawn. Like-named read-outs stand apart in the source and are kept apart here. Residues, ends and D or L forms follow the SMILES beside them. A value given as a limit tells only on which side of the number the result lay.

For orientation: viability means the share of living cells, or the viability signal relative to a control. Read a high viability as less harm to the cells. A word on the MIC50: it is the lowest concentration that inhibits either 50% of growth or 50% of the strains tested, depending on the study. A high value points to weaker potency. In general, MIC90 refers to the lowest concentration that inhibits either 90% of growth or 90% of the strains tested, depending on the study. A low value points to greater potency.

In the case of `CCCCCCCC(=O)N[C@@H](CCN)C(=O)N[C@H](C(=O)N[C@@H](CN)C(=O)N[C@H]1CCNC(=O)[C@H]([C@@H](C)O)NC(=O)[C@H](CCN)NC(=O)[C@H](CCN)NC(=O)[C@H](CC)NC(=O)[C@@H](CC(C)C)NC(=O)[C@H](CCN)NC1=O)[C@@H](C)O` [Lipopeptide F287] (HELM PEPTIDE1{[CCCCCCCC(=O)[*:2]].[Dab].T.[NC[C@H](N[*:1])C(=O)[*:2]].[Dab].[Dab].[dL].[Abu].[Dab].[Dab].T}$PEPTIDE1,PEPTIDE1,5:R3-11:R2$$$V2.0), the “logFC, differential gene expression for all genes” value is -1.073 in the data set on HK-2 cells (Geneid ENSG00000223972), -0.08434 in the data set on HK-2 cells (Geneid ENSG00000227232), -0.6124 in the data set with HK-2 cells (Geneid ENSG00000233750) and 0.2137 with HK-2 cells (Geneid ENSG00000278267). The log2FC is 0.6808 in the data set with HK-2 cells (gene ENSG00000017483 SLC38A5), -0.3448 in the data set on HK-2 cells (gene ENSG00000023445 BIRC3), 0.757 in the data set with HK-2 cells (gene ENSG00000056558 TRAF1) and -1.141 in the data set on HK-2 cells (gene ENSG00000066468 FGFR2). The “Fold Change” value was determined as 0.9117 with HK-2 cells (locus chr1 629062-629433 (ENSG00000225972 by coordinates)) and 0.9406 with HK-2 cells (setting [2]). Besides, in the data set on HK-2 cells, the num.of.degs came to 1076. Also, the values for the viability at 24 h in the data set “in vitro” (Rep1), in the data set “in vitro” (Rep2) and in “in vitro” (Rep4) were 52%, 54.3% and 47%, respectively. Further, in the data set with A. baumannii FADDI-AB034 (FADDI-AB034), the “MIC A. baumannii FADDI-AB034” value is listed as <0.125 µg/mL. In data set [1] (setting [3]), this molecule registered an MIC50 of 0.25 µg/mL (≈ 0.225 µM). The same molecule showed an MIC90 in data set [1] (setting [3]) of 0.5 µg/mL (≈ 0.449 µM). Further, the “potency relative to polymyxin B” value in data set [1] (MIC50/MIC90, A. baumannii panel) is on record as “up to 8 fold”. The Number of isolates is given as 0 in data set [1] (isolates with MIC 0.05 µg/mL); 15 in data set [1] (isolates with MIC 0.125 µg/mL); 126 in data set [1] (isolates with MIC 0.25 µg/mL); 54 in data set [1] (isolates with MIC 0.5 µg/mL); 8 in data set [1] (isolates with MIC 1 µg/mL); 2 in data set [1] (isolates with MIC 2 µg/mL). The Number of isolates in data set [1] (isolates with MIC 4 µg/mL) stood at 0; in data set [1] (isolates with MIC 8 µg/mL) it was 1; in data set [1] (isolates with MIC 16 µg/mL), 0; in data set [1] (isolates with MIC 32 µg/mL), 0; in data set [1] (isolates with MIC 64 µg/mL), 1; in data set [1] (isolates with MIC >64 µg/mL) it was 0. Further, in the data set with A. baumannii ATCC 19606 (ATCC 19606), the “MIC A. baumannii ATCC 19606” value is 0.25 µg/mL (≈ 0.225 µM). In the data set on A. baumannii AB5075 (AB5075), the “MIC A. baumannii AB5075” value was 0.5 µg/mL (≈ 0.449 µM). Moreover, the “MIC A. baumannii FADDI-AB030” value with A. baumannii FADDI-AB030 (FADDI-AB030) was found to be 0.25 µg/mL (≈ 0.225 µM).
As for Colistin [reference compound], the “logFC, differential gene expression for all genes” value in the data set with HK-2 cells (Geneid ENSG00000223972) is -0.6712; with HK-2 cells (Geneid ENSG00000227232) it was -0.1985; in the data set on HK-2 cells (Geneid ENSG00000233750), -0.899; in the data set with HK-2 cells (Geneid ENSG00000278267), -0.3433. For the same molecule, the log2FC in the data set with HK-2 cells (gene ENSG00000017483 SLC38A5) is reported as 0.7893; in the data set with HK-2 cells (gene ENSG00000023445 BIRC3) it was -0.6239; in the data set on HK-2 cells (gene ENSG00000056558 TRAF1) it was 0.6268; with HK-2 cells (gene ENSG00000066468 FGFR2), -1.3101. Besides, the “Fold Change” value in the data set with HK-2 cells (setting [2]) is listed as 0.2606; in the data set with HK-2 cells (setting [4]) it was 0.2186. The num.of.degs with HK-2 cells is 1282. Moreover, in the data set with wild-type HK-2 cells, the “Cell viability, WT, Rep1” value amounted to 52.6875. In the data set with wild-type HK-2 cells, the “Cell viability, WT, Rep2” value amounted to 59.5382. For the same molecule, in the data set with wild-type HK-2 cells, the “Cell viability, WT, Rep4” value came to 47.0908. Besides, in the data set on A. baumannii FADDI-AB034 (carbapenem-resistant isolate), the “MIC A. baumannii FADDI-AB034” value is listed as 0.5 µg/mL. For the same molecule, in the data set on A. baumannii ATCC 19606, the “MIC A. baumannii ATCC 19606” value is 1 µg/mL. Further, in the data set with A. baumannii AB5075, the “MIC A. baumannii AB5075” value was 0.5 µg/mL. The “MIC A. baumannii FADDI-AB030” value with A. baumannii FADDI-AB030 (carbapenem-resistant isolate) was found to be 0.5 µg/mL.
In the case of `CCCCCCCC(=O)N[C@@H](CCN)C(=O)N[C@H](C(=O)N[C@@H](CCN)C(=O)N[C@H]1CCNC(=O)[C@H]([C@@H](C)O)NC(=O)[C@H](CCN)NC(=O)[C@H](CCN)NC(=O)[C@H](CC)NC(=O)[C@@H](CC(C)C)NC(=O)[C@H](CCN)NC1=O)[C@@H](C)O` [Lipopeptide F319] (HELM PEPTIDE1{[CCCCCCCC(=O)[*:2]].[Dab].T.[Dab].[Dab].[Dab].[dL].[Abu].[Dab].[Dab].T}$PEPTIDE1,PEPTIDE1,5:R3-11:R2$$$V2.0), the “logFC, differential gene expression for all genes” value is given as -0.1551 in the data set on HK-2 cells (Geneid ENSG00000223972), -0.02116 with HK-2 cells (Geneid ENSG00000227232), -0.4424 with HK-2 cells (Geneid ENSG00000233750) and 0.1872 with HK-2 cells (Geneid ENSG00000278267). The log2FC with HK-2 cells (gene ENSG00000017483 SLC38A5) is 0.557; in the data set with HK-2 cells (gene ENSG00000023445 BIRC3) it was -0.6344; with HK-2 cells (gene ENSG00000056558 TRAF1), 0.7378; with HK-2 cells (gene ENSG00000066468 FGFR2), -1.084. For the same molecule, the “Fold Change” value in the data set on HK-2 cells (setting [2]) is given as 0.3467; in the data set on HK-2 cells (setting [4]) it was 0.6059. In addition, the num.of.degs with HK-2 cells is listed as 763. Further, the viability at 24 h in the data set “in vitro” (Rep1) amounted to 79%; in “in vitro” (Rep2) it was 79.1%; in “in vitro” (Rep3) it was 78.8%; in the data set “in vitro” (Rep4) it was 70.1%. For the same molecule, in the data set with A. baumannii FADDI-AB034 (FADDI-AB034), the “MIC A. baumannii FADDI-AB034” value is listed as <0.125 µg/mL. For the same molecule, in the data set on A. baumannii ATCC 19606 (ATCC 19606), the “MIC A. baumannii ATCC 19606” value is on record as 0.5 µg/mL (≈ 0.443 µM). The “MIC A. baumannii FADDI-AB030” value in the data set with A. baumannii FADDI-AB030 (FADDI-AB030) stood at 0.5 µg/mL (≈ 0.443 µM).
